Assay results published in ChEMBL document CHEMBL3885861, “Open TG-GATES”.

Species on record: Rattus norvegicus
Experiment: Open TG-GATES - Regimen: Single
Assay type: toxicity, organism-based, Sprague-Dawley
Set-up: regimen Single, gender Male, age 6 weeks
Conditions: in vivo, po, 10 mg/kg, route gavage, dose level Middle; for APTT / Bas / Eos / Fbg / Hb / Ht / Lym / MCH / MCHC / MCV / Mono / Neu / PT / Plat / RBC / Ret / WBC: tissue Blood; for KIDNEY_L / KIDNEY_R / KIDNEY_TOTAL: tissue Kidney; for LIVER: tissue Liver; for A/G / ALP / ALT / AST / BUN / CRE / Ca / Cl / DBIL / GLC / IP / K / LDH / Na / PL / RALB / TBIL / TC / TG / TP / gamma-GTP: tissue Plasma

In the case of `C[C@H]1C(=O)O[C@@H]2CCN3CC=C(COC(=O)[C@](C)(O)[C@]1(C)O)[C@H]23` [MONOCROTALINE], the TERMINAL_BW (3 h) is reported as 213.5 g, the APTT (3 h) is reported as 19.4 s and the Bas (3 h) is reported as 0%. For the same molecule, the Eos (3 h) was 1.4%, the Fbg (3 h) was 303.6 mg/dL and the Hb (3 h) was 12.9 g/dL. It also gave a Ht (3 h) of 37.7%, a Lym (3 h) of 77.2% and an MCH (3 h) of 21.5 pg. It also gave an MCHC (3 h) of 34.2%, an MCV (3 h) of 62.9 fL and a Mono (3 h) of 2.2%. The Neu (3 h) was 19%, the PT (3 h) was 16.5 s and the Plat (3 h) was 122.4 x10_4/uL. For the same molecule, the RBC (3 h) was 600.4 x10_4/ul, the Ret (3 h) was 8.6% and the WBC (3 h) was 80.3 x10_2/uL. For the same molecule, the KIDNEY_L (3 h) was 1 g, the KIDNEY_R (3 h) was 0.9 g and the KIDNEY_TOTAL (3 h) was 1.9 g. For the same molecule, the LIVER (3 h) was 9.8 g, the A/G (3 h) was 1.3 and the ALP (3 h) was 1633.4 IU/L. The ALT (3 h) was 44.4 IU/L, the AST (3 h) was 72.8 IU/L and the BUN (3 h) was 14.2 mg/dL. For the same molecule, the CRE (3 h) was 0.1 mg/dL, the Ca (3 h) was 10.8 mg/dL and the Cl (3 h) was 105.6 meq/L. For the same molecule, the DBIL (3 h) was 0.002 mg/dL, the GLC (3 h) was 171.8 mg/dL and the IP (3 h) was 8.9 mg/dL. The K (3 h) was 4.3 meq/L, the LDH (3 h) was 207.6 IU/L and the Na (3 h) was 142.6 meq/L. The PL (3 h) was 139 mg/dL, the RALB (3 h) was 3 g/dL and the TBIL (3 h) was 0.012 mg/dL. It also gave a TC (3 h) of 80 mg/dL, a TG (3 h) of 73.2 mg/dL and a TP (3 h) of 5.3 g/dL. For the same molecule, the gamma-GTP (3 h) was 1 IU/L, the TERMINAL_BW (6 h) was 207.4 g and the APTT (6 h) was 21.7 s. It also gave a Bas (6 h) of 0%, an Eos (6 h) of 1.2% and a Fbg (6 h) of 303.2 mg/dL. It also gave a Hb (6 h) of 13.2 g/dL, a Ht (6 h) of 38.9% and a Lym (6 h) of 72.4%. It also gave an MCH (6 h) of 20.9 pg, an MCHC (6 h) of 34% and an MCV (6 h) of 61.6 fL. The Mono (6 h) was 3.2%, the Neu (6 h) was 22% and the PT (6 h) was 16.3 s. For the same molecule, the Plat (6 h) was 121.5 x10_4/uL, the RBC (6 h) was 632 x10_4/ul and the Ret (6 h) was 8.4%. For the same molecule, the WBC (6 h) was 93.8 x10_2/uL, the KIDNEY_L (6 h) was 1 g and the KIDNEY_R (6 h) was 1 g. The KIDNEY_TOTAL (6 h) was 1.9 g, the LIVER (6 h) was 9.1 g and the A/G (6 h) was 1.3. For the same molecule, the ALP (6 h) was 1403 IU/L, the ALT (6 h) was 36.6 IU/L and the AST (6 h) was 70.8 IU/L. For the same molecule, the BUN (6 h) was 11.2 mg/dL, the CRE (6 h) was 0.1 mg/dL and the Ca (6 h) was 10.5 mg/dL. It also gave a Cl (6 h) of 107 meq/L, a DBIL (6 h) of 0.004 mg/dL and a GLC (6 h) of 179.6 mg/dL. The IP (6 h) was 9.5 mg/dL, the K (6 h) was 4.3 meq/L and the LDH (6 h) was 222.6 IU/L. The Na (6 h) was 141.8 meq/L, the PL (6 h) was 129 mg/dL and the RALB (6 h) was 3 g/dL. It also gave a TBIL (6 h) of 0.016 mg/dL, a TC (6 h) of 72.2 mg/dL and a TG (6 h) of 53.2 mg/dL. For the same molecule, the TP (6 h) was 5.3 g/dL, the gamma-GTP (6 h) was 1 IU/L and the TERMINAL_BW (9 h) was 203.7 g. It also gave an APTT (9 h) of 20 s, a Bas (9 h) of 0% and an Eos (9 h) of 1%. It also gave a Fbg (9 h) of 294.4 mg/dL, a Hb (9 h) of 13.1 g/dL and a Ht (9 h) of 38.6%. The Lym (9 h) was 75.4%, the MCH (9 h) was 21 pg and the MCHC (9 h) was 34.1%. The MCV (9 h) was 61.7 fL, the Mono (9 h) was 2.8% and the Neu (9 h) was 20.2%. For the same molecule, the PT (9 h) was 16.5 s, the Plat (9 h) was 119.6 x10_4/uL and the RBC (9 h) was 626 x10_4/ul. It also gave a Ret (9 h) of 8.8%, a WBC (9 h) of 71.7 x10_2/uL and a KIDNEY_L (9 h) of 1 g. For the same molecule, the KIDNEY_R (9 h) was 1 g, the KIDNEY_TOTAL (9 h) was 2 g and the LIVER (9 h) was 9 g. For the same molecule, the A/G (9 h) was 1.3, the ALP (9 h) was 1365.4 IU/L and the ALT (9 h) was 33.6 IU/L. It also gave an AST (9 h) of 62.8 IU/L, a BUN (9 h) of 11.4 mg/dL and a CRE (9 h) of 0.1 mg/dL. It also gave a Ca (9 h) of 10.6 mg/dL, a Cl (9 h) of 106.2 meq/L and a DBIL (9 h) of 0.006 mg/dL. For the same molecule, the GLC (9 h) was 180.2 mg/dL, the IP (9 h) was 9.7 mg/dL and the K (9 h) was 4.2 meq/L. It also gave an LDH (9 h) of 144 IU/L, a Na (9 h) of 142.2 meq/L and a PL (9 h) of 132.8 mg/dL. For the same molecule, the RALB (9 h) was 3.1 g/dL, the TBIL (9 h) was 0.024 mg/dL and the TC (9 h) was 73.2 mg/dL. The TG (9 h) was 54.8 mg/dL, the TP (9 h) was 5.4 g/dL and the gamma-GTP (9 h) was 1.2 IU/L. It also gave a TERMINAL_BW (24 h) of 217 g, an APTT (24 h) of 21.3 s and a Bas (24 h) of 0%. The Eos (24 h) was 0.8%, the Fbg (24 h) was 309.8 mg/dL and the Hb (24 h) was 13.5 g/dL. For the same molecule, the Ht (24 h) was 39.6%, the Lym (24 h) was 80.8% and the MCH (24 h) was 21.1 pg. For the same molecule, the MCHC (24 h) was 34%, the MCV (24 h) was 61.9 fL and the Mono (24 h) was 2.8%. For the same molecule, the Neu (24 h) was 15.2%, the PT (24 h) was 16.2 s and the Plat (24 h) was 117.4 x10_4/uL. It also gave an RBC (24 h) of 639.8 x10_4/ul, a Ret (24 h) of 7.1% and a WBC (24 h) of 75.2 x10_2/uL. It also gave a KIDNEY_L (24 h) of 1 g, a KIDNEY_R (24 h) of 1 g and a KIDNEY_TOTAL (24 h) of 2 g. The LIVER (24 h) was 10 g, the A/G (24 h) was 1.3 and the ALP (24 h) was 1872.8 IU/L. It also gave an ALT (24 h) of 45.2 IU/L, an AST (24 h) of 75.4 IU/L and a BUN (24 h) of 17 mg/dL. For the same molecule, the CRE (24 h) was 0.1 mg/dL, the Ca (24 h) was 10.4 mg/dL and the Cl (24 h) was 106.6 meq/L. It also gave a DBIL (24 h) of 0.002 mg/dL, a GLC (24 h) of 180.8 mg/dL and an IP (24 h) of 6.9 mg/dL. For the same molecule, the K (24 h) was 4.3 meq/L, the LDH (24 h) was 235.8 IU/L and the Na (24 h) was 142.2 meq/L. For the same molecule, the PL (24 h) was 153 mg/dL, the RALB (24 h) was 3.1 g/dL and the TBIL (24 h) was 0.006 mg/dL. The TC (24 h) was 79.4 mg/dL, the TG (24 h) was 114.6 mg/dL and the TP (24 h) was 5.5 g/dL. For the same molecule, the gamma-GTP (24 h) was 0.8 IU/L.
